Reference: US4752614A, “Pharmaceutical compositions of tellerium and selenium compounds for the induction of in vivo and in vitro production of cytokines” (Bar-Ilan University, priority 1987, dated 1988)
“And” between values parts separate entries of the source, which are not always exact repeats. Equal values may be shown once.

Assays:
[1] = Preliminary toxicity (LD50) in mice; assay type: in vivo; details: 6 week old mice
fibrosarcoma cells = assay: Survival of mice with methylcholanthrene induced fibrosarcoma (Example 6); assay type: in vivo, Balb-c mice; parameters: mortality: concentration or dose not given beside the values
Description: A solution of 0.2% of methylcholanthrene (MCA, Sigma, USA) was prepared by dissolving 2 mg of the carcinogen in 1.0 ml of olive oil (Ref: Petra, et al., Cancer 19:302, 1961) with continuous shaking at 37° C. for 30 minutes. Six to eight week old C3 Heb mice were injected with 0.6 mg MCA/0.3 ml of solvent/mouse subcutaneously in the rear right thigh. After 21-30 days the induced tumor was surgically removed and pushed through 60 mesh stainless nets to obtain isolated cells. These cells were then further injected subcuteneously into the rear right thigh of C3 Heb mice 5 to 8 weeks of age, at a concentration of 10^6 cells/0.3 ml PBS/mouse/hypodermic needle 25 gauge, 5/8" to further induce tumor formation.
Balb-c mice, age 7 weeks were injected with methylcholanthrene to induce the formation of fibrosarcoma cells according to the procedure of Example 5. The test animals were divided into two groups.
(a) control (0.2 IP of 40% DMSO and 60% PBS)

IL-2 [2] = assay: In vitro induction of IL-2 from mouse spleen cells (Example 7); assay type: cell-based, male Balb-c mice
Description: (§1) This example describes the in vitro making of IL-2 and CSF from mouse spleen cells using the compound of Example 1 as the extrinsic stimulating agent.
(§2) Spleens were removed from 15, male Balb-c mice 6 to 8 weeks of age. The spleen cells were pushed through stainless steel 60 mesh (U.S. standard) nets resting in 5 mm Petri dishes containing PBS in order to separate the cells. The cells were then collected into centrifuge tubes and spun at 1000 rpm for 10 minutes. The supernatant was discarded and cells were treated with 5 ml of hypotonic buffer (0.15M NH4 Cl; 0.01M KHCO3 dissolved in double distilled water, pH 7.2) for exactly two minutes. Thereafter, PBS was added to the cells and the test tubes were centrifuged for 10 minutes at 1000 rpm. The cells were rinsed twice and counted in a heamocytometer using trypan blue to test for viability. The cells were brought to a concentration of 10^7 viable cells/ml. The cells were contacted with varying amounts of the compound of Example 1 in 1 ml of 40% DMSO 60% PBS.

CSF = assay: In vitro induction of colony stimulating factor (CSF) from mouse spleen cells (Example 7); assay type: cell-based, male Balb-c mice
Description: as §1, §2

IL-2 [3] = assay: Oral administration in drinking water, IL-2 content of spleen cell supernatants (Example 13); assay type: in vivo, male Balb-C mice; details: 1 μg/ml H2O, 4 days
Description: The water solution was prepared by dissolving the compounds in PBS at a concentration of 50 μg/ml PBS and diluting the resulting solution to the desired concentration. The compounds were administered over a 4 day period. The exact amount of liquid intake was recorded daily. […] The cells were incubated at a concentration of 10^7 cells/ml in enriched RPMI containing 2 μg/ml of con-A for 24 hours at 37° C. The supernatants were collected and tested for IL-2 content.

IL-2 [4] = assay: IL-2 secretion by mouse spleen cells in vitro, CTLD proliferation (Example 17); assay type: cell-based, male Balb/c mice; details: 24 hours, 1 μg/ml of cell mixture
Description: The compounds listed below were tested in vitro at various concentrations that ranged from 10 μg/ml cells to 1×10^-6 μg/ml of cell mixtures. Cells were obtained from spleens of male Balb/c mice 6-8 weeks of age. Spleens were pushed through a stainless steel 60 mesh strainer to separate cells.

human mononuclear cells = assay: Proliferation of human mononuclear cells (Example 19); assay type: cell-based
Description: Human mononuclear cells were obtained by layering heparinized blood over a Ficoll/Hypaque gradient. The mononuclear cells were resuspended in enriched RPMI, rinsed three times and brought to a concentrations of 5×10^5 cells/ml encriched RPMI. […] Aliquots of 0.2 ml of each sample were placed in wells of microplates (triplicates). Microplates were incubated for 72 hours at 37° C. after which they were labelled with H^3 methyl-thymidine 1 μCi/well for an additional 24 hours. Cells were then harvested with a cell harvester.

receptor sites for IL-2 = assay: Detection of IL-2 receptors with fluoresceinated antibody (Example 21); assay type: cell-based, human; details: 1 μg/ml, 24 hours
Description: This example provides an assay to detect the presence of receptor sites for IL-2. […] The cells were washed twice with PDS and then incubated with a specific fluoresceinated antibody against IL-2 receptors as described in Uchiyama et al, J. Immunol.

With `Cl[TeH]1(Cl)(Cl)OCCO1` [Example 1] the LD50 [1] was 300 μg./25 g of body weight, the “% Survival” value (fibrosarcoma cells; 10 μg IP, day 4 after innoculation) was 100% and the “% Survival” value (fibrosarcoma cells; 10 μg IP, day 9) was 100%. The “% Survival” value (fibrosarcoma cells; 10 μg IP, day 23) was 100%, the “% Survival” value (fibrosarcoma cells; 10 μg IP, day 30) was 100% and the “% Survival” value (fibrosarcoma cells; 10 μg IP, day 37) was 100%. The “% Survival” value (fibrosarcoma cells; day 39, start of increased dosage regimen) was 100%, the “% Survival” value (fibrosarcoma cells; day 41, increased dosage) was 100% and the “% Survival” value (fibrosarcoma cells; day 43, increased dosage) was 100%. For the same molecule, the “% Survival” value (fibrosarcoma cells; day 46, increased dosage) was 80%, the “% Survival” value (fibrosarcoma cells; day 48, increased dosage) was 80% and the “% Survival” value (fibrosarcoma cells; day 50, increased dosage) was 80%. The “% Survival” value (fibrosarcoma cells; day 53, increased dosage) was 60%, the “% Survival” value (fibrosarcoma cells; day 60, increased dosage) was 40% and the “% Survival” value (fibrosarcoma cells; day 67) was 20%. For the same molecule, the “% Survival” value (fibrosarcoma cells; day 68) was 0%, the mortality (fibrosarcoma cells; group (b), until just after the increased dosage regimen (day 39)) was 0% and the IL-2 (IL-2 [2]; 5 pg) was 12,000 cpm. The IL-2 (IL-2 [2]; 50 pg) was 38,000 cpm, the IL-2 (IL-2 [2]; 500 pg) was 30,000 cpm and the IL-2 (IL-2 [2]; 5 ng) was 15,000 cpm. For the same molecule, the IL-2 (IL-2 [2]; 50 ng) was 6,000 cpm, the IL-2 (IL-2 [2]; 500 ng) was 5,000 cpm and the IL-2 (IL-2 [2]; 5 μg) was 5,000 cpm. The IL-2 (IL-2 [2]; 50 μg) was 5,000 cpm, the CSF (CSF; 5 pg) was 140 colonies/dish and the CSF (CSF; 50 pg) was 260 colonies/dish. It also gave a CSF (CSF; 500 pg) of 175 colonies/dish, a CSF (CSF; 5 ng) of 120 colonies/dish and a CSF (CSF; 50 ng) of 75 colonies/dish. For the same molecule, the CSF (CSF; 500 ng) was 25 colonies/dish, the CSF (CSF; 5 μg) was 5 colonies/dish and the CSF (CSF; 50 μg) was 2 colonies/dish. For the same molecule, the IL-2 content (IL-2 [3]) was 49179 cpm, the “Percent increase as compared to control” value (IL-2 [3]) was “+50%” and the “Spleen Cells (IL-2 activity)” value (IL-2 [4]) was 14,600 cpm. For the same molecule, the activation at 1 µg/mL (IL-2 [4]; Mus musculus, read-out: Spleen Cells, percent in parentheses (increase over control)) was 472%, the “proliferation of human mononuclear cells” value (human mononuclear cells; first part of table, 1 × 10^-3 μg/ml) was 2553 and 2180 and the “proliferation of human mononuclear cells” value (human mononuclear cells; first part of table, 1 × 10^-4 μg/ml) was 3838 and 2387. The “proliferation of human mononuclear cells” value (human mononuclear cells; first part of table, 1 × 10^-5 μg/ml) was 3218 and 2442, the “proliferation of human mononuclear cells” value (human mononuclear cells; first part of table, 5 × 10^-1 μg/ml) was 18515 and 33700 and the “proliferation of human mononuclear cells” value (human mononuclear cells; second part of table, 1 μg/ml) was 6000 and 5600. The “proliferation of human mononuclear cells” value (human mononuclear cells; second part of table, 5 μg/ml) was 5008 and 5182, the “proliferation of human mononuclear cells” value (human mononuclear cells; second part of table, 1 × 10^-1 μg/ml) was 7037 and 10382 and the “proliferation of human mononuclear cells” value (human mononuclear cells; second part of table, 1 × 10^-2 μg/ml) was 6898 and 5712. For the same molecule, the “proliferation of human mononuclear cells” value (human mononuclear cells; second part of table, 1 × 10^-3 μg/ml) was 5800 and 6000, the “proliferation of human mononuclear cells” value (human mononuclear cells; second part of table, 1 × 10^-4 μg/ml) was 5513 and 6212 and the “proliferation of human mononuclear cells” value (human mononuclear cells; second part of table, 5 × 10^-1 μg/ml) was 20488 and 13600. The “proliferation of human mononuclear cells” value (human mononuclear cells; second part of table, 5 × 10^-2 μg/ml) was 5520 and 5765 and the “cells positive for IL-2 receptors” value (receptor sites for IL-2) was 20%.
